Here are results for 29 substances from patent US20250213707A1, “COMPOUND FOR INCREASING EFFICACY OF ONCOLYTIC VIRUSES” (ABLEVIA BIOTECH GMBH, priority 2022, published 2025).

Experiment [1] deals with IgG from human donors (anti-AAV antibodies). Put plainly: Screen for anti-AAV antibodies in human sera, 2452 linear 15-amino-acid AAV peptides on microarrays (Table 1). Also on record: key to group I: X: the deduplicated aggregate of the respective top 10 peptide hits for each donor was compiled and designated as group I; key to group II: X: the deduplicated aggregate of the respective top 25 peptide hits for each donor was compiled and designated as group II; key to group III: X: the deduplicated aggregate of the respective top 50 peptide hits for each donor was compiled and designated as group III. Format: binding. As to conditions: human donor IgG binding to linear 15-amino-acid AAV peptides on microarray, fluorescence; for group I: membership in deduplicated aggregate of top 10 peptide hits for each donor; for group II: membership in deduplicated aggregate of top 25 peptide hits for each donor; for group III: membership in deduplicated aggregate of top 50 peptide hits for each donor. In outline:
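Protein G-purified IgG from human donor blood incubated with microarrays of 2452 linear 15-mer peptides from 16 AAVs; binding read by fluorescence. Background-subtracted signals ranked per donor, with top 10, 25, 50 and 250 hits pooled and deduplicated into groups I-IV.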

For the next experiment, the system named is mAb Mac2-158. Put plainly: Epitope mapping of mAb Mac2-158 with circular peptides of human CD163 SRCR domain 1. In kind it is binding. As to conditions: circular peptides aligned to SRCR domain 1 of human CD163. The text has this:
As a result, the following sequences (as well as motifs derived therefrom) are highly suitable epitopes anti-CD163 antibodies and fragments thereof used as SADC biopolymer scaffold: […]

Experiment [2] concerns IgG from human donors (anti-measles virus antibodies). Format: binding. Also on record: key: X: The peptides belonging to the Top 10% hits.
The subject of the next experiment is mAb 9C12. The experiment in a line: Epitope mapping of monoclonal antibody 9C12 against cyclic peptides of the AdV hexon protein (peptide microarray). As to conditions: cyclic 7mer, 10mer, 13mer peptides of AdV hexon. Format: binding, mice. The procedure: Monoclonal antibody 9C12 (alias mAB TC31-9C12·C9-s) was generated by immunizing mice with the hexon protein (Uniprot ID: P04133 which corresponds to GenBank: BAG48782.1). […] In brief, diluted antibody was incubated with GFP-expressing replication-defective Ad vector and subsequently added to Hela cells followed by fluorescence readout. […] The binding signal of mAb 9C12 to the peptides yielded several candidates that could be aligned and clustered against the protein. An epitopic cluster region of 20 amino acids was identified from which paratope binding peptides can be preferentially derived. Below are the aligments of the corresponding peptide hits from this screen. […] Cyclic peptides were selected out of up to 50 top binders in this experiment.

Turning to “LEDNLSEGIREWWD (REGION 1..14: note = peptide derived from viral capsid protein) [SEQ ID NO: 1898]”, in experiment [1], the “group I” value was “X”, the “group II” value is recorded as “X” and the “group III” value was “X”. Further, in the experiment with mAb Mac2-158, the “peptide number among the top 20 peptide hits of mAb Mac2-158” value is on record as 04.
Turning to “PEIQYTSNYNKSVN (REGION 1..14: note = peptide derived from viral capsid protein) [SEQ ID NO: 1921]”, in experiment [1], the “group I” value is on record as “X”, the “group II” value was “X” and the “group III” value is given as “X”. Further, in experiment [2], the “top 10%” value is on record as “X”.
On to “GKKRPVDQSPQEPD (REGION 1..14: note = peptide derived from viral capsid protein) [SEQ ID NO: 1919]”, for which, in experiment [1], the “group I” value is reported as “X”, the “group II” value is “X” and the “group III” value was “X”. Besides, in experiment [2], the “top 10%” value was “X”.
Regarding SNSQLIFAGPNPSG [SEQ ID NO: 1908], in experiment [1], the “group I” value is recorded as “X”, the “group II” value is recorded as “X” and the “group III” value is “X”. Further, the “top 10%” value in experiment [2] is listed as “X”. Besides, the “peptide number among the top 20 peptide hits of mAb Mac2-158” value with mAb Mac2-158 is 03.
“PQYGYLTLNNGSQA (REGION 1..14: note = peptide derived from viral capsid protein) [SEQ ID NO: 1901]”: in experiment [1], the “group I” value is “X”, the “group II” value is “X” and the “group III” value is given as “X”. The “peptide number among the top 20 peptide hits of mAb Mac2-158” value in the experiment on mAb Mac2-158 worked out at 14.
For “SESVPDPQPIGEPP (REGION 1..14: note = peptide derived from viral capsid protein) [SEQ ID NO: 1899]”, in experiment [1], the “group I” value is given as “X”, the “group II” value was “X” and the “group III” value is given as “X”. Moreover, in experiment [2], the “top 10%” value is on record as “X”. In addition, the “peptide number among the top 20 peptide hits of mAb Mac2-158” value in the experiment with mAb Mac2-158 is reported as 09.
As for “KTAPGKKRPVDQSP (REGION 1..14: note = peptide derived from viral capsid protein) [SEQ ID NO: 1920]”, in experiment [1], the “group I” value is recorded as “X”, the “group II” value is recorded as “X” and the “group III” value is “X”. In addition, the “top 10%” value in experiment [2] is recorded as “X”.
Consider “NYNKSVNVDFTVDT (REGION 1..14: note = peptide derived from viral capsid protein) [SEQ ID NO: 1903]”, for which, in experiment [1], the “group I” value is on record as “X”, the “group II” value was “X” and the “group III” value is “X”. For the same substance, in experiment [2], the “top 10%” value is given as “X”. Also, the “peptide number among the top 20 peptide hits of mAb Mac2-158” value in the experiment with mAb Mac2-158 came out at 19.
For GQTGDSESVPDPQP [SEQ ID NO: 1911], in experiment [1], the “group I” value is listed as “X”, the “group II” value is “X” and the “group III” value is “X”. For the same substance, the “peptide number among the top 20 peptide hits of mAb Mac2-158” value in the experiment with mAb Mac2-158 is given as 08.
Take GETTRPATAAQTQV [SEQ ID NO: 1906]: in experiment [1], the “group I” value is “X”, the “group II” value is given as “X” and the “group III” value is reported as “X”. Besides, in the experiment with mAb Mac2-158, the “peptide number among the top 20 peptide hits of mAb Mac2-158” value is 01.
With FGKQGAGRDNVDYS [SEQ ID NO: 1915], in experiment [1], the “group I” value was “X”, the “group II” value is listed as “X” and the “group III” value was “X”. For the same substance, the “top 10%” value in experiment [2] was “X”.
As for “FNIQVKEVTTNDGV (REGION 1..14: note = peptide derived from viral capsid protein) [SEQ ID NO: 1910]”, in experiment [1], the “group I” value is reported as “X”, the “group II” value is “X” and the “group III” value is listed as “X”. In the experiment with mAb Mac2-158, the “peptide number among the top 20 peptide hits of mAb Mac2-158” value was found to be 06.
With STNLQRGNLALGET [SEQ ID NO: 1894], in experiment [1], the “group I” value was “X”, the “group II” value is “X” and the “group III” value was “X”. Moreover, the “top 10%” value in experiment [2] is “X”.
On to “QLKAGDNPYLRYNH (REGION 1..14: note = peptide derived from viral capsid protein) [SEQ ID NO: 1913]”, for which, in experiment [1], the “group I” value was “X”, the “group II” value is “X” and the “group III” value is listed as “X”. In addition, the “peptide number among the top 20 peptide hits of mAb Mac2-158” value in the experiment on mAb Mac2-158 worked out at 13.
Regarding TRPATAPQIGTVNS [SEQ ID NO: 1905], in experiment [1], the “group I” value was “X”, the “group II” value is listed as “X” and the “group III” value is “X”. In addition, in experiment [2], the “top 10%” value was “X”.
As for “LIKNTPVPADPPTT (REGION 1..14: note = peptide derived from viral capsid protein) [SEQ ID NO: 1900]”, in experiment [1], the “group I” value is reported as “X”, the “group II” value is recorded as “X” and the “group III” value is “X”. Moreover, the “peptide number among the top 20 peptide hits of mAb Mac2-158” value in the experiment with mAb Mac2-158 stood at 12.
For “YDQQLKAGDNPYLK (REGION 1..14: note = peptide derived from viral capsid protein) [SEQ ID NO: 1924]”, in experiment [1], the “group I” value was “X”, the “group II” value was “X” and the “group III” value is recorded as “X”. In addition, in experiment [2], the “top 10%” value is on record as “X”.
With YLYYLNRTQGTTSG [SEQ ID NO: 1925], in experiment [1], the “group I” value is “X”, the “group II” value is on record as “X” and the “group III” value is “X”. For the same substance, the “top 10%” value in experiment [2] is listed as “X”.
With “GADGVGNSSGNWHC (REGION 1..14: note = peptide derived from viral capsid protein) [SEQ ID NO: 1982]”, in experiment [1], the “group I” value is on record as “X”, the “group II” value is recorded as “X” and the “group III” value was “X”. Further, the “ranked binding signal obtained from the microarray (01 binds strongest)” value (“ranked binding signal obtained” for short) with mAb 9C12 is given as 15.
As for “IFNIQVKEVTTSNG (REGION 1..14: note = peptide derived from viral capsid protein) [SEQ ID NO: 1907]”, in experiment [1], the “group I” value is given as “X”, the “group II” value was “X” and the “group III” value is recorded as “X”. The “peptide number among the top 20 peptide hits of mAb Mac2-158” value in the experiment with mAb Mac2-158 stood at 02.
As for “TIANNLTSTIQVFT (REGION 1..14: note = peptide derived from viral capsid protein) [SEQ ID NO: 1968]”, in experiment [1], the “group I” value was “X”, the “group II” value is listed as “X” and the “group III” value is “X”. Moreover, the “ranked binding signal obtained” value in the experiment with mAb 9C12 worked out at 01.
In the case of LSRTQSTGGTQGTQ [SEQ ID NO: 1973], in experiment [1], the “group I” value is listed as “X”, the “group II” value is listed as “X” and the “group III” value is on record as “X”. The “ranked binding signal obtained” value in the experiment with mAb 9C12 was determined as 06.
Consider “EEIRTTNPVATEQY (REGION 1..14: note = peptide derived from viral capsid protein) [SEQ ID NO: 1980]”, for which, in experiment [1], the “group I” value is given as “X”, the “group II” value is reported as “X” and the “group III” value is “X”. Moreover, the “ranked binding signal obtained” value in the experiment on mAb 9C12 is 13.
As for “ANNLTSTVQIFADS (REGION 1..14: note = peptide derived from viral capsid protein) [SEQ ID NO: 1895]”, in experiment [1], the “group I” value is given as “X”, the “group II” value is on record as “X” and the “group III” value is given as “X”. Moreover, the “top 10%” value in experiment [2] is on record as “X”.
Turning to VTQNEGTKTIANNL [SEQ ID NO: 1970], in experiment [1], the “group I” value is on record as “X”, the “group II” value was “X” and the “group III” value is “X”. Also, the “ranked binding signal obtained” value with mAb 9C12 amounted to 03.
Turning to “SFITQYSTGQVSVE (REGION 1..14: note = peptide derived from viral capsid protein) [SEQ ID NO: 1914]”, in experiment [1], the “group I” value was “X”, the “group II” value is recorded as “X” and the “group III” value was “X”. Further, the “peptide number among the top 20 peptide hits of mAb Mac2-158” value with mAb Mac2-158 is on record as 17.
For “EEEIRTTNPVATEQ (REGION 1..14: note = peptide derived from viral capsid protein) [SEQ ID NO: 1979]”, in experiment [1], the “group I” value is recorded as “X”, the “group II” value was “X” and the “group III” value was “X”. The “ranked binding signal obtained” value in the experiment on mAb 9C12 is 12.
365 (CSGRVEVKVQEEW) [compound 365]: the “peptide number among the top 20 peptide hits of mAb Mac2-158” value in the experiment on mAb Mac2-158 is 07.
As for “DAEFQERLKEDTSF (REGION 1..14: note = peptide derived from viral capsid protein) [SEQ ID NO: 1975]”, in experiment [1], the “group I” value is “X”, the “group II” value is reported as “X” and the “group III” value was “X”. In the experiment with mAb 9C12, the “ranked binding signal obtained” value amounted to 08.
